Experimental data taken from ChEMBL document CHEMBL1221175, “Purmorphamine activates the Hedgehog pathway by targeting Smoothened” (Nat Chem Biol, 2006).
One block for each compound: values may come before it. Active and inactive are the calls of the source. No cut-off for these calls is given here.

Columns and labels:
[1] = molecular target: Sonic hedgehog protein (Mus musculus) (UniProt Q62226); assay: Activation of Shh in mouse Shh Light2 cells assessed as […] at 10 uM after 30 hrs by luciferase reporter gene assay in presence of 1000 to 10000 nM 3-keto-N-aminoethyl-N'-aminocaproyldihydrocinnamoyl cyclopamine; assay type: functional, cell-based; conditions: Shh Light II
[2] = molecular target: Sonic hedgehog protein (Mus musculus) (UniProt Q62226); assay: Activation of Shh in mouse Shh Light2 cells assessed as […] at 1 uM after 30 hrs by luciferase reporter gene assay in presence of 1000 to 10000 nM 3-keto-N-aminoethyl-N'-aminocaproyldihydrocinnamoyl cyclopamine; assay type: functional, cell-based; conditions: Shh Light II
[3] = molecular target: Sonic hedgehog protein (Mus musculus) (UniProt Q62226); assay: Activation of Shh in ptch1 gene-deficient MEF assessed as beta-galactosidase activity after 30 hrs by chemiluminescence assay in presence of 100 nM 3-keto-N-aminoethyl-N'-aminocaproyldihydrocinnamoyl cyclopamine
Protein smoothened [4] = molecular target: T1, Protein smoothened (Homo sapiens, UniProt Q99835); assay: Inhibition of BODIPY-cyclopamine binding to Smo expressed in HEK293T cells after 1 hr by fluorescence microscopy
[5] = molecular target: Sonic hedgehog protein (Mus musculus) (UniProt Q62226); assay: Activation of Shh in mouse Shh Light2 cells assessed as […] after 30 hrs by luciferase reporter gene assay in presence of 100 nM 3-keto-N-aminoethyl-N'-aminocaproyldihydrocinnamoyl cyclopamine; assay type: functional, cell-based; conditions: Shh Light II
Protein smoothened [6] = molecular target: T1, Protein smoothened; conditions: HEK-293T; 5 uM
Description: Inhibition of BODIPY-cyclopamine binding to Smo C-terminal cytoplasmic domain expressed in HEK293T cells at 5 uM after 4 hrs by fluorescence microscopy

Protein smoothened [7] = molecular target: T1, Protein smoothened; conditions: HEK-293T; 5 uM; remark: listed apart in the source
Description: Inhibition of BODIPY-cyclopamine binding to Smo N-terminal cysteine domain expressed in HEK293T cells at 5 uM after 4 hrs by fluorescence microscopy

[8] = molecular target: Sonic hedgehog protein (Mus musculus) (UniProt Q62226); assay: Activation of Shh in smo gene-deficient MEF at 0.5 uM after 30 hrs by luciferase reporter assay
[9] = molecular target: Sonic hedgehog protein (Mus musculus) (UniProt Q62226); assay: Activation of Shh in smo-expressing MEF at 0.5 uM after 30 hrs by luciferase reporter assay

T1 sequence (Q99835 whole entry): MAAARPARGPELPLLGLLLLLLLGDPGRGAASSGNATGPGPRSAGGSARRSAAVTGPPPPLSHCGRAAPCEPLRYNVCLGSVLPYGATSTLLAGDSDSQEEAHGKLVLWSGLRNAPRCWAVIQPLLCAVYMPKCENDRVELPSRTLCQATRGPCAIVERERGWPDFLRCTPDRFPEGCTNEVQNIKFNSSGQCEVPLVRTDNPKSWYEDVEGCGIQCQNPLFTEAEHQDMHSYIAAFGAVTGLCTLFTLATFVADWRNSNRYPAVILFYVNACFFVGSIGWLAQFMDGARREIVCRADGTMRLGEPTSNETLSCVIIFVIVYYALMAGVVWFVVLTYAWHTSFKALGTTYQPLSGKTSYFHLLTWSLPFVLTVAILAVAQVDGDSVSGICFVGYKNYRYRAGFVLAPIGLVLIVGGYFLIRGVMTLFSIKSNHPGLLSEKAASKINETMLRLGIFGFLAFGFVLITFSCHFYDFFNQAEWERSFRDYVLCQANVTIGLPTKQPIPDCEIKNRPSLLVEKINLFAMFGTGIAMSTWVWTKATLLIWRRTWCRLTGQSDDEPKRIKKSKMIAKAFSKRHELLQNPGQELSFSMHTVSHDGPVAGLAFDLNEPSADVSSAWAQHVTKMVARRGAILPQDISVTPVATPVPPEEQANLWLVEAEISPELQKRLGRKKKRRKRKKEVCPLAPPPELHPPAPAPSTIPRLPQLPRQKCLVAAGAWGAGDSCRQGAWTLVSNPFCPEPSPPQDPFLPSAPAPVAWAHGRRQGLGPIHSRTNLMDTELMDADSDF

Activity [1]: Active
Activity [2]: Active
Structure (SMILES): CC1=C2C[C@H]3[C@@H](CC=C4CC(=O)CC[C@@]43C)[C@@H]2CC[C@]12O[C@@H]1C[C@H](C)CN(CCNC(=O)CCCCCNC(=O)CCc3ccccc3)[C@H]1[C@H]2C

Structure (SMILES): CC1=C2C[C@H]3[C@@H](CC=C4C[C@@H](O)CC[C@@]43C)[C@@H]2CC[C@]12O[C@@H]1C[C@H](C)CN[C@H]1[C@H]2C
Activity [3]: Active

Activity [3]: Active
Structure (SMILES): CN[C@H]1CC[C@H](N(Cc2cccc(-c3ccncc3)c2)C(=O)c2sc3ccccc3c2Cl)CC1

IC50 (Protein smoothened [4]): 1500 nM
Activity [5]: Active
inhibition (Protein smoothened [6]): Active
inhibition (Protein smoothened [7]): Active
Activity [3]: Active
Activity [8]: inactive
Activity [9]: Active
Structure (SMILES): c1ccc2c(Oc3nc(Nc4ccc(N5CCOCC5)cc4)c4ncn(C5CCCCC5)c4n3)cccc2c1 [PURMORPHAMINE]
